Marks after values point to notes of the source that are not given here.
Assays:
hCB1Rs [1] = molecular target: T1, hCB1Rs (Homo sapiens, UniProt P21554); assay: biochemical; conditions: read-out: EMAX, [^35S]GTPγS binding (maximal G-protein activation)
T1 construct: host or cells: CHO-K1 (CHO-hCB1)

hCB1Rs [2] = molecular target: T1, hCB1Rs; assay: cell-based; format: cell-based
hCB1Rs [3] = molecular target: T1, hCB1Rs; format: cell-based

T1 sequence (P21554 whole entry): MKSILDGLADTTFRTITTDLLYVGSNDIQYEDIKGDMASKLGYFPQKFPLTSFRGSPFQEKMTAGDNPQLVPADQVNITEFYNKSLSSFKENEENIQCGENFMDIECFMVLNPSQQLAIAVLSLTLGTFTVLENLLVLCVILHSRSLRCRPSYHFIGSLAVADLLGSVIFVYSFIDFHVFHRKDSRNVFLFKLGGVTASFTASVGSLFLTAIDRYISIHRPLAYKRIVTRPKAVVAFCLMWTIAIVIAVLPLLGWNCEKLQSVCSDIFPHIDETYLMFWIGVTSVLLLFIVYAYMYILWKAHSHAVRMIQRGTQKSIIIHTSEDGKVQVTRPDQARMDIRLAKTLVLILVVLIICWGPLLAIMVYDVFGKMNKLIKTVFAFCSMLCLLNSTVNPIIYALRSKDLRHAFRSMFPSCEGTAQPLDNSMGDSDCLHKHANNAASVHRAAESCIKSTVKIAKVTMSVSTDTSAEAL

CCCCCCC(C)(C)c1ccc([C@@H]2C[C@H](O)CC[C@H]2CCCO)c(O)c1 [CP-55,940, reference compound]
Emax (hCB1Rs [1]): 64 ± 3.8%
IMAX, cAMP accumulation (maximal adenylyl cyclase inhibition) (hCB1Rs [2]): 86.7 ± 6.4^a %
Efficacy (Imax) of CP-55,940 to inhibit adenylyl cyclase (hCB1Rs [3]): 86.7 ± 6.4%

From publication PMC6168621 (Frontiers in Pharmacology, 2018)
